Source: patent US20160355782A1, “METHOD FOR ENHANCING DIFFERENTIATION OF DOPAMINERGIC NEURONS” (Buddhist Tzu Chi Medical Foundation, priority 2015, published 2016)

Legend:
Type in all cases: cell-based, rat
[1] = system: Nurr1-transduced cortical NPCs; test: Real-time RT-PCR of DA phenotype genes in Nurr1-transduced cortical NPCs; conditions: 0.5 μM UCN, 3 days
Description: TH promoter assay or lenti-virial transductions were carried out at 60%˜70% cell confluences (usually for 3 days) as described below. Cell differentiation was induced for 3 to 5 days by switching to mitogens-free DMEM/F12/N2 medium in the presence of 0.5 μM UCN. Differentiation medium was changed every other day.
For lenti-viral transduction, E13 cortical NPCs were incubated with lenti-viruses (25 multiplicity of infection) expressing Nurr1 or GFP containing poly-brene (hexadimethrine bromide, 1 μg/mL, Sigma-Aldrich) for 24 hours. After 1 day of further cell expansion in the presence of the mitogens, cells were induced to differentiate.
(§1) Total RNA was extracted from VM tissues or cultured VM precursors with TRIzol® reagent (Invitrogen). One-step real-time RT-PCR analysis was performed to determine the expression of genes (Power SYBR® Green RNA-to-CT™ 1-step kit, Applied Biosystems, Foster City, Calif.). Threshold cycle (CO value for each test gene was normalized to the Ct value for the β-actin control from the same RNA preparations. The ratio of transcription of each gene was calculated as 2^−(ΔCt), where ΔCt is the difference Cr (test gene)−Ct (β-actin). The primers used herein are listed in Table 1.

[2] = system: Nurr1 complexes in VM precursor cells; test: Immuno-precipitation with anti-Nurr1 antibody in VM precursor cells; conditions: UCN, 24 hours
Description: For immuno-precipitation, VM precursor cells were treated with UCN for 24 hours and then harvested with M-PER® Mammalian Protein Extraction Reagent (Pierce, Rockford, Ill.) containing 1 mM PMSF, 10 μg/mL aprotinin, 10 μg/mL leupeptin, and 5 μg/mL pepstatin A. The cytosolic lysates (250 μg of protein) were incubated with a rabbit anti-Nurr1 antibody (Santa Cruz Biotechnology) with gentle rocking overnight at 4° C. PureProteome™ protein G magnetic beads (Merck Millipore, Billerica, Mass.) were added (15 μL of suspension) and rotated for 3 h at 4° C. After washing the beads with ice-cold immuno-precipitation buffer (20 mM Tris, pH 7.5, 150 mM NaCl, 1 mM EDTA, 1 mM EGTA, 1% Triton X-100, 2.5 mM sodium pyrophosphate, 1 mM β-glycerolphosphate, 1 mM Na3VO4, 1 μg/mL leupeptin, 1 mM PMSF), immuno-precipitated proteins were eluted in sample buffer, and subjected to Western blot analyses with anti-MeCP2, -CoREST, -HDAC1, -Nurr1, -Foxa2, or -Pitx3 antibodies.

VM precursor cultures [3] = test: DA uptake assay in VM precursor cultures; conditions: 1 μM UCN, 4 days
Description: For DA uptake assay, cells were washed twice with warm Krebs-Ringer buffer (16 mM sodium phosphate, 119 mM NaCl, 4.7 mM KCl, 1.8 mM CaCl2, 1.2 mM MgSO4, 1.3 mM EDTA and 5.6 mM glucose, pH 7.4), and then incubated with 1 μM [^3H]-dopamine(DA)(60 Ci/mmol, PerkinElmer) in Krebs-Ringer buffer at 37° C. for 20 min. After washing with ice-cold Krebs-Ringer buffer, cells were collected in 1 N NaOH and radioactivity was counted with a liquid scintillation counter. Non-specific uptake was determined in parallel wells that received both the tritiated tracer and 10 μM mazindol. The specific [^3H] DA were calculated by subtracting the amount of radioactivity obtained in the presence of mazindol from that obtained in the absence of mazindol.

VM precursor cultures [4] = test: Real-time RT-PCR analysis of VM precursor cultures
Description: Briefly, ventral mesencephalic tissues were dissected from E14.5 Sprague-Dawley (SD) rats, and then dissociated enzymatically (0.1% trypsin) and mechanically. Cells were seeded into 24-well (1×10^5/cm^2) culture plates pre-coated with 20 μg/mL poly-D-lysine (Sigma-Aldrich), and were maintained in 0.5 mL/well of minimum essential medium (MEM) supplemented with 10% fetal bovine serum (FBS), 10% horse serum (HS), 1 g/L glucose, 2 mM L-glutamine, 1 mM sodium pyruvate, 100 μM nonessential amino acids, 100 U/mL penicillin, and 100 μg/mL streptomycin (all purchased from Invitrogen). Cultures were maintained at 37° C. in a humidified atmosphere of 5% CO2 and 95% air. For DA neuron differentiation, VM precursor cultures, four hours after seeding, were switched to Dulbecco's Modified Eagle's Medium (DMEM)/Ham's F12 (1:1) containing N2 supplement (Invitrogen, Carlsbad, Calif.), penicillin and streptomycin. Immediately following the switch to DMEM/F12 medium, VM precursor cells were treated with various concentration of rat UCN (from Sigma-Aldrich, St. Louis, Mo.) for the indicated periods. For neutralization of endogenous UCN bioactivity, anti-UCN antibody (15 μg/mL) (Santa Cruz Biotechnology, Santa Cruz, Calif.) was added to the VM precursor cultures.
as §1

VM precursor cultures [5] = test: Real-time RT-PCR analysis of VM precursor cultures; conditions: 1.25 mM SB, 3 days

Urocortin [UCN]
DAT gene expression [1]: increased gene expression
TH gene expression [1]: increased gene expression
VMAT2 gene expression [1]: increased gene expression
amount of Foxa2 that precipitates with Nurr1 [2]: markedly enhanced
interaction between Pitx3 and Nurr1 proteins [2]: not significantly altered
DAT-mediated specific DA uptake (VM precursor cultures [3]): significantly enhanced
L-aromatic amino acid decarboxylase (AADC) mRNA (VM precursor cultures [4]; 1 μM UCN, 4 days): trends were found for increased
dopamine transporter (DAT) mRNA (VM precursor cultures [4]; 1 μM UCN, 4 days): trends were found for increased
Foxa2 mRNA expression (VM precursor cultures [4]; UCN): upregulated
Nurr1 mRNA expression (VM precursor cultures [4]; UCN): upregulated
Pitx3 mRNA expression (VM precursor cultures [4]; UCN): upregulated
TH mRNA expression (VM precursor cultures [4]; UCN vs control medium): significantly elevated
mRNA expression specific for GABAergic neurons (GAD67) (VM precursor cultures [4]; UCN vs control medium): no effect
mRNA expression specific for glutamatergic neurons (VGULT1) (VM precursor cultures [4]; UCN vs control medium): no effect
mRNA expression specific for serotonergic neurons (SERT) (VM precursor cultures [4]; UCN vs control medium): no effect

CCCC(=O)[O-].[Na+] [SB, sodium butyrate, reference compound]
TH mRNA expression (VM precursor cultures [5]): markedly upregulated
